In patent US20240368153A1, “Aminopyridine-based MTA-Cooperative PRMT5 Inhibitors” (Mirati Therapeutics, Inc., priority 2021, published 2024) one finds IC50 and Kd data, which are given here for 20 compounds.

Where two headings read alike, the source gives them in different places. Where only a bound is given, the exact number is not on record here.

One may read the IC50 as the concentration that inhibits the measured activity by half. The Kd is a measure of binding affinity in units of concentration. A higher Kd goes with a looser complex.

Experiment [1] deals with recombinant human dual expressed Avi PRMT5/His-MEP50 protein (Homo sapiens (Human), UniProt O14744). Briefly: HTRF binding assay in presence of MTA. As to conditions: 30 μM MTA. The procedure: The PRMT5 binding activity of compounds of the present invention was determined using an HTRF binding assay or SPR assay.
A recombinant human dual expressed Avi PRMT5/His-MEP50) protein (corresponding to amino acids for PRMT5 2-637, and 2-342 for MEP50 expressed in baculovirus) was incubated with target fragments in final buffer (25 mM ADA pH 7.2, 30 μM MTA, 1 mM TCEP, 50 mM NaCl, 0.002% Tween, 5 nM proprietary Tracer binding compound prepared in-house), overnight at 2-8° C. After overnight incubation the binding is monitored after the addition of 0.5 nM Anti-His-Tb (Cisbio) after 1 hr incubation at RT (˜20-24 hrs total binding time). The HTRF signal was measured using a Clariostar reader (BMG) excitation filter (Ex Tr), dichroic filter (LP TP) and emission filters (F 665-10 and F 620-10) manufacturer's instructions. The HTRF ratio was calculated using the formula: [emission 665/emission 620]*10000.
(In general: Time-resolved FRET reads energy transfer from a long-lived donor to a nearby acceptor.)

The target of experiment [2] is PRMT5•MTA (biotinylated PRMT5-MEP50) (Homo sapiens (Human), UniProt O14744). Put plainly: SPR binding assay, MTA running buffer. As to conditions: 20 μM MTA running buffer. The procedure:
(§1) SPR screening was performed in MTA running buffer (25 mM Bicine pH 7.6, 100 mM NaCl, 1 mM TCEP, 20 μM MTA, 0.05% Tween-20 and 2% DMSO). The biotinylated PRMT5-MEP50 surface was equilibrated with MTA running buffer for 12 hours prior to the start. […] Subsequently, compound titration was repeated in SAM-running buffer (25 mM Bicine pH 7.6, 100 mM NaCl, 1 mM TCEP, 20 μM SAM, 0.05% Tween-20, and 2% DMSO). […] After double referencing, the steady-state response was extracted for each fragment concentration and was fit to the Langmuir isotherm equation to determine the equilibrium dissociation constant (KD).
On the technique in general: SPR reads the build-up and loss of mass on a sensor chip optically.

Experiment [3] has as its target PRMT5•SAM (biotinylated PRMT5-MEP50) (Homo sapiens (Human), UniProt O14744). Put plainly: SPR binding assay, SAM running buffer. The note with it: 20 μM SAM running buffer. The procedure: as §1
In a further experiment the target is PRMT5/MEP50 complex (Homo sapiens (Human), UniProt O14744). Put plainly: PRMT5:MEP50 FlashPlate Assay. Format: biochemical. The method, then: The PRMT5 inhibitory activity of compounds of the present invention was determined using a PRMT5:MEP50 FlashPlate Assay (Reaction Biology Corporation).
The assay uses purified human, PRMT5 enzyme to convert S-adenosyl-L-[methyl-^3H]methionine plus histone H4 L-arginine to S-adenosyl-L-homocysteine plus histone H4 [methyl-^3H]-L-arginine. The assay was carried out using Streptavidin-coated FlashPlates (Perkin Elmer), which contained a scintillant embedded in the plastic of the plate. The histone H4 peptide substrate was conjugated with biotin, which binds to the streptavidin-coated well of the plate, placing the H4 peptide in close proximity to the side well and the scintillant. The transfer of the tritiated methyl group from S-adenosyl-L-[methyl-^3H]methionine to the bound histone H4 peptide generated a radiolabeled histone H4, which was quantitated by measuring in a scintillation counter to determine the activity of PRMT5 enzyme in the presence and absence of compound. […] Briefly, compounds of the present invention were solubilized in 100% DMSO at a highest concentration of 10 mM. For IC, determinations, the initial starting concentration for the serial dilutions of each compound was 50 μM. Control samples lacking compound, PRMT5/MEP50 complex or various reaction components also were prepared and processed in parallel with compound test samples. SAH was used as a positive control for assay validation. To measure PRMT5 inhibitory activity, 3 nM PRMT5/MEP50 complex (Reaction Biology Corporation) was preincubated with test compound in assay buffer containing 40 nM histone H4 peptide (amino acids 1-15)-Biotin conjugate for 20 min at room temperature. The enzymatic reaction was initiated by adding 1 μM tritiated S-adenosyl methionine (final concentration) and the reaction is allowed to proceed for 20 min. The reaction was stopped and the amount of bound, tritiated H4 peptide in each sample was determined using a scintillation counter. The IC50 value for each compound was calculated from each 10-point dose-response curve for samples plus and minus MTA using GraphPad Prism software and the results for exemplary compounds of Formula (I) is shown in Table 9a.

The mark [4] stands for this setting: histone H4 peptide, absence of MTA, read-out: IC50.
Where [5] appears, read: read-out: IC50 + 2 μM MTA, histone H4 peptide, presence of 2 μM MTA.

Chain of PRMT5/MEP50 complex (O14744 whole entry): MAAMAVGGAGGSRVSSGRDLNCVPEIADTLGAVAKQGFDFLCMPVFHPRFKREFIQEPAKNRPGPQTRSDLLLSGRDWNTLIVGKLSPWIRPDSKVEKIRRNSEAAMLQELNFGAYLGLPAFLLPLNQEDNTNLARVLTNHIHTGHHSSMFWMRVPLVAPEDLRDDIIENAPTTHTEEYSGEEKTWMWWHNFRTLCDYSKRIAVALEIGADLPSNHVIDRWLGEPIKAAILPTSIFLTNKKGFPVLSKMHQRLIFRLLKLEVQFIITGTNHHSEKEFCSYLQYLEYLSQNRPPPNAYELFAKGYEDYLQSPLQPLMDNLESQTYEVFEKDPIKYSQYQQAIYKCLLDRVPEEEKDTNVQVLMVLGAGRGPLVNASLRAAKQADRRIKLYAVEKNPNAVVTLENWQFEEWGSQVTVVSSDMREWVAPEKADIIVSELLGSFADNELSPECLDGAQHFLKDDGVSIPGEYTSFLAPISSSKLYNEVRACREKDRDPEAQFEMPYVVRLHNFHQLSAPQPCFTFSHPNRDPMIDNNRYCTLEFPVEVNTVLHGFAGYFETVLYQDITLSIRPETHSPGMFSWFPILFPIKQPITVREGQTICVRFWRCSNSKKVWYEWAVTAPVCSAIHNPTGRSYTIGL
Chain of PRMT5/MEP50 complex (Q9BQA1 whole entry partner): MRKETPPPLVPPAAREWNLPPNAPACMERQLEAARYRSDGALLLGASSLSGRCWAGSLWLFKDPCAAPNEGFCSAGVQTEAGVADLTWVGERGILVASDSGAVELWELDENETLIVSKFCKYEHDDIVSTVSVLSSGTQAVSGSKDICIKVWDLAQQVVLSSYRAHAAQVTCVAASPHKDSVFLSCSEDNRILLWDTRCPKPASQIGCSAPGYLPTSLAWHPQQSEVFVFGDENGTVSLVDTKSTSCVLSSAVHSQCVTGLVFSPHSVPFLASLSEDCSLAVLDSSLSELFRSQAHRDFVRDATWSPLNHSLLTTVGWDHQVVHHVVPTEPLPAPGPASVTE
Chain of PRMT5•MTA (biotinylated PRMT5-MEP50) (O14744 whole entry, the tested form may be a part): as the sequence (O14744 whole entry) above
Chain of PRMT5•MTA (biotinylated PRMT5-MEP50) (Q9BQA1 whole entry partner, the tested form may be a part): as the sequence (Q9BQA1 whole entry partner) above
Chain of PRMT5•SAM (biotinylated PRMT5-MEP50) (O14744 whole entry): as the sequence (O14744 whole entry) above
Chain of PRMT5•SAM (biotinylated PRMT5-MEP50) (Q9BQA1 whole entry partner): as the sequence (Q9BQA1 whole entry partner) above
Chain of recombinant human dual expressed Avi PRMT5/His-MEP50 protein (O14744 2-637): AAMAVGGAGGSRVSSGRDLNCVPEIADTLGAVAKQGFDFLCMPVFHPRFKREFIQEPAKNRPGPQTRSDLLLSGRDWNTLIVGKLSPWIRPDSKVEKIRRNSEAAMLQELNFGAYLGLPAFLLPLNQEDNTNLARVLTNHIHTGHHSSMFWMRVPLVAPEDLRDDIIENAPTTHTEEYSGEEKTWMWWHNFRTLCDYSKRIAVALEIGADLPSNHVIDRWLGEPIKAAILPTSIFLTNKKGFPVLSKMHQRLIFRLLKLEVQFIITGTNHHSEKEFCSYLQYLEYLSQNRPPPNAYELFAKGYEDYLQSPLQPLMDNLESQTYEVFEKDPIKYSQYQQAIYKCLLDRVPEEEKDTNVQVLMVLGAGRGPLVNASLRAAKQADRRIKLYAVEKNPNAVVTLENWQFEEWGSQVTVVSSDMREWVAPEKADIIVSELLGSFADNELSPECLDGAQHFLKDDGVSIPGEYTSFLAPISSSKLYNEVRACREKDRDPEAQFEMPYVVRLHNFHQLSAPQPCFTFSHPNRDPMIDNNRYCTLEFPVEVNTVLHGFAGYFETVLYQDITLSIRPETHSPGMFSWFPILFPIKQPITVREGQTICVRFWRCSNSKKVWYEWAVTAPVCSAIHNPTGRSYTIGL
Chain of recombinant human dual expressed Avi PRMT5/His-MEP50 protein (Q9BQA1 2-342 partner): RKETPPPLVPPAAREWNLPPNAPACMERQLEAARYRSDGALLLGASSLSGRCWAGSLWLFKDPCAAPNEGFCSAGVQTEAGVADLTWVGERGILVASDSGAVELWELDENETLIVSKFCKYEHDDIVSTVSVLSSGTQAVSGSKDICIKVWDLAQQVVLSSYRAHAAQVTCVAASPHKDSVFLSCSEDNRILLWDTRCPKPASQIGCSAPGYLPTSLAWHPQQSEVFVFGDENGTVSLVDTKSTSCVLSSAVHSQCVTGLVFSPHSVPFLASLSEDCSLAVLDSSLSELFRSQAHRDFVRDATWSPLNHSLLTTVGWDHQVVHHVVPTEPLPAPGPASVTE

For the compound `Cc1cc(N)nc2cc(Cc3ccccc3C#N)cnc12` [Example 2-4, 2-((6-amino-8-methyl-1,5-naphthyridin-3-yl)methyl)benzonitrile], the IC50 in experiment [1] is 992 nM; at PRMT5/MEP50 complex (setting [4]), above 300000 nM; on PRMT5/MEP50 complex (setting [5]) it was above 300000 nM. For the same compound, the Kd in experiment [2] was determined as 874 nM; in experiment [3], 3090 nM.

`Cc1cc(N)nc2cc(Cc3cnn(C)c3)cnc12` [Example 2-9, 4-methyl-7-[(1-methylpyrazol-4-yl)methyl]-1,5-naphthyridin-2-amine]: the IC50 amounted to 204 nM in experiment [1], 243000 nM at PRMT5/MEP50 complex (setting [4]) and 17100 nM at PRMT5/MEP50 complex (setting [5]). Moreover, the Kd in experiment [2] stood at 137 nM; in experiment [3], 748 nM.

Turning to `Cc1cc(N)nc2cc(CN3C(=O)c4ccccc4C3=O)cnc12` [Example 7-6, 2-[(6-amino-8-methyl-1,5-naphthyridin-3-yl)methyl]isoindoline-1,3-dione], the values for the IC50 (in experiment [1]; on PRMT5/MEP50 complex (setting [4]); on PRMT5/MEP50 complex (setting [5])) were 21 nM, above 300000 nM and 745 nM, respectively. In addition, the Kd in experiment [2] is 12 nM; in experiment [3] it was 105 nM.

In the case of `Nc1nc2cc[nH]c2cc1C1CC1` [Example 9-2, 6-cyclopropyl-1H-pyrrolo[3,2-b]pyridin-5-amine], the concentration for half-maximal inhibition (IC50) in experiment [1] worked out at 24700 nM; at PRMT5/MEP50 complex (setting [4]), 232000 nM; on PRMT5/MEP50 complex (setting [5]) it was 97800 nM. In addition, the figures for the equilibrium dissociation constant (Kd) in experiment [2] and in experiment [3] were 3260 nM and 19600 nM, respectively.

`Cc1cc(N)nc2cc(-c3cnsc3)cnc12` [Example 1-8, 7-(isothiazol-4-yl)-4-methyl-1,5-naphthyridin-2-amine]: the IC50 in experiment [1] is 11400 nM; at PRMT5/MEP50 complex (setting [4]) it was above 300000 nM; at PRMT5/MEP50 complex (setting [5]), above 300000 nM. The dissociation constant (Kd) in experiment [2] came to 7500 nM; in experiment [3], 19100 nM.

`Cc1cc2[nH]c(CN3CCc4ccccc4C3=O)cc2nc1N` [Example 14-6, 2-[(5-amino-6-methyl-1H-pyrrolo[3,2-b]pyridin-2-yl)methyl]-3,4-dihydroisoquinolin-1-one]: the figures for the concentration for half-maximal inhibition (IC50) (in experiment [1]; at PRMT5/MEP50 complex (setting [4]); on PRMT5/MEP50 complex (setting [5])) were 7 nM, 43200 nM and 504 nM, respectively. In addition, the Kd in experiment [2] turned out to be 1 nM; in experiment [3], 6 nM.

`Cc1cc(N)nc2cc(CNC(=O)c3ccccc3)cnc12` [Example 8-1, N-[(6-amino-8-methyl-1,5-naphthyridin-3-yl)methyl]benzamide]: the IC50 in experiment [1] came to 9 nM; at PRMT5/MEP50 complex (setting [4]) it was 4290 nM; on PRMT5/MEP50 complex (setting [5]) it was 419 nM. For the same compound, the values for the Kd in experiment [2] and in experiment [3] were 5 nM and 33 nM, respectively.

For `Cc1cc2[nH]ccc2nc1N` [Example 9-1, 6-methyl-1H-pyrrolo[3,2-b]pyridin-5-amine], the results for the concentration for half-maximal inhibition (IC50) (in experiment [1]; on PRMT5/MEP50 complex (setting [4]); on PRMT5/MEP50 complex (setting [5])) were 2200 nM, 188000 nM and 27900 nM, respectively. In addition, the Kd in experiment [2] amounted to 456 nM; in experiment [3] it was 3360 nM.

In the case of `CC(=O)N(C)Cc1cc2nc(N)c(C)cc2[nH]1` [Example 14-4, N-((5-amino-6-methyl-1H-pyrrolo[3,2-b]pyridin-2-yl)methyl)-N-methylacetamide], the IC50 in experiment [1] turned out to be 124 nM; on PRMT5/MEP50 complex (setting [4]), 170000 nM; at PRMT5/MEP50 complex (setting [5]) it was 1240 nM. Besides, the dissociation constant Kd came to 17 nM in experiment [2] and 80 nM in experiment [3].

In the case of `Cc1cc2[nH]c(Cn3ccc4ccccc4c3=O)cc2nc1N` [Example 14-7, 2-[(5-amino-6-methyl-1H-pyrrolo[3,2-b]pyridin-2-yl)methyl]isoquinolin-1-one], the figures for the IC50 (in experiment [1]; on PRMT5/MEP50 complex (setting [4]); at PRMT5/MEP50 complex (setting [5])) were 8 nM, 36700 nM and 474 nM, respectively. Besides, the equilibrium dissociation constant (Kd) is 2 nM in experiment [2] and 6 nM in experiment [3].

As for `Cc1cc(N)nc2cc(Cc3ccccc3Cl)cnc12` [Example 2-3, 7-(2-chlorobenzyl)-4-methyl-1,5-naphthyridin-2-amine], the IC50 in experiment [1] was 1310 nM; at PRMT5/MEP50 complex (setting [4]), above 300000 nM; on PRMT5/MEP50 complex (setting [5]), above 300000 nM. Moreover, the Kd in experiment [2] was 4680 nM; in experiment [3], 31500 nM.

As to `Nc1nc2cc[nH]c2cc1C(F)(F)F` [Example 9-3, 6-(trifluoromethyl)-1H-pyrrolo[3,2-b]pyridin-5-amine], the half-inhibitory concentration (IC50) in experiment [1] was 20300 nM; on PRMT5/MEP50 complex (setting [4]), 431000 nM; on PRMT5/MEP50 complex (setting [5]), 210000 nM. The figures for the Kd in experiment [2] and in experiment [3] were 11700 nM and 29200 nM, respectively.

With `Cc1cc2[nH]c(-n3cnc(Br)c3)cc2nc1N` [Example 13-3, 2-(4-bromoimidazol-1-yl)-6-methyl-1H-pyrrolo[3,2-b]pyridin-5-amine], the IC50 in experiment [1] was 2360 nM; on PRMT5/MEP50 complex (IC50 + 2 μM MTA, histone H4 peptide, presence of 2 μM MTA), 131000 nM; on PRMT5/MEP50 complex (setting [4]), above 300000 nM. For the same compound, the dissociation constant Kd in experiment [2] was 680 nM; in experiment [3], 2010 nM.

With `Nc1nc2cc(CNC(=O)c3ccncn3)[nH]c2cc1Br` [Example 8-2, N-[(5-amino-6-bromo-1H-pyrrolo[3,2-b]pyridin-2-yl)methyl]pyrimidine-4-carboxamide], the values for the 50% inhibitory concentration (IC50) (in experiment [1]; on PRMT5/MEP50 complex (setting [4]); at PRMT5/MEP50 complex (setting [5])) were 13 nM, 5790 nM and 362 nM, respectively. Besides, the Kd came out at 9 nM in experiment [2] and 137 nM in experiment [3].

For `Cc1cc(N)nc2cc(CNC(=O)c3ccccc3)cnc12` [Example 7-1, N-[(6-amino-8-methyl-1,5-naphthyridin-3-yl)methyl]benzamide], the values for the IC50 (in experiment [1]; on PRMT5/MEP50 complex (setting [4]); on PRMT5/MEP50 complex (setting [5])) were 158 nM, 62600 nM and 5570 nM, respectively. The figures for the Kd in experiment [2] and in experiment [3] were 94 nM and 396 nM, respectively.

With `Cc1cc2[nH]c(N3CC(=O)N(C)C3=O)cc2nc1N` [Example 13-4, 1-(5-amino-6-methyl-1H-pyrrolo[3,2-b]pyridin-2-yl)-3-methyl-imidazolidine-2,4-dione], the IC50 in experiment [1] is 50600 nM; at PRMT5/MEP50 complex (setting [4]), above 300000 nM; at PRMT5/MEP50 complex (setting [5]), above 300000 nM. In addition, the Kd is 10700 nM in experiment [2] and 30900 nM in experiment [3].

On to `Cc1cc2sc(CNC(=O)c3ccccc3)cc2nc1N` [Example 16-1, N-[(5-amino-6-methyl-thieno[3,2-b]pyridin-2-yl)methyl]benzamide], for which the IC50 in experiment [1] was 163 nM; at PRMT5/MEP50 complex (setting [4]), above 300000 nM; on PRMT5/MEP50 complex (setting [5]), 18200 nM. Besides, the dissociation constant Kd in experiment [2] was determined as 72 nM; in experiment [3] it was 1350 nM.

With `Cc1cc(N)nc2cc(CNC(=O)c3cc(NC4CC4)ncn3)cnc12` [Example 7-4, N-[(6-amino-8-methyl-1,5-naphthyridin-3-yl)methyl]-6-(cyclopropylamino)pyrimidine-4-carboxamide], the 50% inhibitory concentration (IC50) in experiment [1] stood at 29 nM; on PRMT5/MEP50 complex (setting [4]), 18200 nM; at PRMT5/MEP50 complex (setting [5]) it was 1660 nM. The dissociation constant Kd turned out to be 22 nM in experiment [2] and 81 nM in experiment [3].

`Cc1cc(N)nc2cc(CNC(=O)c3ccncn3)cnc12` [Example 7-2, N-[(6-amino-8-methyl-1,5-naphthyridin-3-yl)methyl]pyrimidine-4-carboxamide]: the IC50 in experiment [1] is 313 nM; at PRMT5/MEP50 complex (setting [4]), above 100000 nM; on PRMT5/MEP50 complex (setting [5]) it was 22000 nM. The Kd in experiment [2] came out at 151 nM; in experiment [3], 2220 nM.

Turning to `Cc1cc(N)nc2cc(Cc3ccccc3F)cnc12` [Example 2-2, 7-(2-fluorobenzyl)-4-methyl-1,5-naphthyridin-2-amine], in experiment [1], the half-inhibitory concentration (IC50) was determined as 354 nM. Besides, the figures for the equilibrium dissociation constant (Kd) in experiment [2] and in experiment [3] were 5280 nM and 39100 nM, respectively.
